Measurements taken from US9642922B2, “Caspase-triggered nano-aggregation probes and methods of use” (The Board of Trustees of the Leland Stanford Junior …, priority 2013, dated 2017).
Where a chain is given by its changes, count along the chain named. Marks after values point to notes of the source that are not given here.

Columns and labels:
apoptotic HeLa cells = assay: Epifluorescence microscopy of apoptotic HeLa cells labeled with probes; format: cell-based, human; settings: microscopy, 2 μM probe
Experimental: After removal of the medium, the cells were incubated with C-SNAF, L-ctrl, or D-ctrl at 2 μM for 24 h. Some cells were first incubated with caspase inhibitor (Z-VAD-fmk, 50 μM) for 30 min, followed by incubating with 2 μM C-SNAF for 24 h. The cells were carefully washed with PBS (1×) three times, and stained with Hoechst 33342 (2 μM) at 37° C. for 30 min. After rinses with PBS (1×) several times, the medium was replaced and the fluorescence images were acquired with DAPI and Cy5.5 filters. The images were processed using the standard CRi Nuance software, analyzed using Image J software package (NIH), and presented at the same intensity scale for comparison.
HeLa cells in #1.5 borosilicate 8-well chambered coverslips (Nunc) were either incubated with C-SNAF (2 μM) alone or co-incubated with DOX (1, 2, and 5 μM) and 2 μM C-SNAF, 2 μM C-SNAF together with caspase inhibitor (Z-VAD-fmk, 50 μM), or control probes D-ctrl and L-ctrl at 2 μM for 24 h. Then the medium was removed, the cells were carefully washed with PBS (1×) three times, and stained with nuclear binding probe Hoechst 33342 (2 μM) at 37° C. for 30 min. After several rinses with PBS (1×), the medium was replaced and the fluorescence images were acquired with DAPI and […] filters.

caspase-3 [1] = target: T1, caspase-3 (Homo sapiens, UniProt P42574); assay: HPLC assay of caspase-3-triggered macrocyclization of C-SNAF; format: biochemical; parameters: purchased Sigma; host or cells: E. coli; settings: same conditions as C-SNAF; D-ctrl after 24 h
T1 sequence (P42574 29-175 limits assumed): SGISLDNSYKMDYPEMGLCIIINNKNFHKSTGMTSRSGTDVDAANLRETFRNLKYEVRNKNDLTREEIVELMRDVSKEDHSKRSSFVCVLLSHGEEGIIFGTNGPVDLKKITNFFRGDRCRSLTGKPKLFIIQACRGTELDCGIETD
T1 sequence (P42574 176-277 limits assumed): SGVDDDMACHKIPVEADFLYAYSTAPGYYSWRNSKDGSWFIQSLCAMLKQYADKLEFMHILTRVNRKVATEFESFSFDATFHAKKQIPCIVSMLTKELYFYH
Experimental: The progression of caspase-3-triggered macrocyclization of C-SNAF to form C-SNAF-cycl in solution was monitored using high-performance liquid chromatography (HPLC) following incubation of the probe (25 μM) with recombinant human caspase-3 (4.9×10^−[…]).
Caspase (human, recombinant from E. coli) assays were performed for caspase-3 (4.9×10^−3 U; 7.35×10^−4 mg, Sigma), −7 (18.3 U; 7.35×10^−4 mg, Calbiochem), and −9 (0.3 U; 7.35×10^−4 mg, Calbiochem). All caspase assays were conducted in caspase buffer with 50 mM HEPES, 100 mM NaCl, 1 mM EDTA, 10 mM TCEP, 10% glycerol, and 0.1% CHAPS at pH 7.4. Cathepsin B (human liver; 0.27 U; 7.35×10^−4 mg, Calbiochem) and Legumain (human, recombinant from mouse myeloma cell line; >250 pmol/min/μg; 7.35×10^−4 mg, R&D Systems) were conducted in reaction buffer with 50 mM sodium acetate, 50 mM NaCl, 0.5 mM EDTA and 10 mM TCEP at pH 5.5. C-SNAF was diluted in the respective enzyme reaction buffer (25 μM, 1 mL) and remained at room temperature for 10 min, to which was then added the respective enzymes. Reactions were performed at 37° C., and monitored by HPLC hourly. The percentage conversion of the reaction was calculated based on the percentage of peak area of C-SNAF-cycl in the HPLC trace at 675 nm UV detection, which indicated the efficacy of enzyme cleavage of C-SNAF.

[2] = test system: STS-induced apoptotic HeLa cells; assay: Flow cytometry of STS-induced apoptotic HeLa cells labeled with probes; format: cell-based, human; settings: 2 μM probe, compared with C-SNAF
Experimental: Approximately 10^5 HeLa cells in 1 mL DMEM medium were seeded onto 12-well plates. […] For the inhibitor blocking experiment, the STS-treated cells were first incubated with the caspase inhibitor Z-VAD-fmk (50 μM, R&D Systems) for 30 min, and then 2 μM C-SNAF was added. All cells incubations were 24 h, followed by staining with FLICA (FAM) after trypsinization. After washing with PBS (1×) three times, the cell pellets were resuspended in 300 μL PBS and applied for flow cytometry analysis using the FITC and Cy5.5 channels. The cell number for each flow cytometry analysis was approximately 5000 to 10000, and the data was processed using FlowJo software.

subcutaneous HeLa tumors = assay: In vivo fluorescence imaging of DOX-treated HeLa tumor-bearing mice; parameters: species or system mouse
Experimental: C-SNAF or either of the control probes (5 nmol) was administered intravenously to tumor-bearing mice and whole animal fluorescence was longitudinally monitored using a Maestro fluorescence imager.
To establish tumors in 6-week-old female nu/nu mice, 2×10^6 HeLa cells suspended in 50 μL of a 50% v/v mixture of Matrigel in supplemented DMEM (10% FBS, 1% penstrep) were injected subcutaneously in the shoulders of the mouse. Tumors were grown until a single aspect was 0.7 to 0.9 cm (approximately 10-15 days), and then treatment consisting of 8 mg/kg DOX or saline was initiated. Treatments were administered intravenously once every 4 d for a total of three times. Total mouse body weight and tumor size (width and length by caliper) was measured every other day. Tumor volumes were calculated assuming ellipsoid shape with the formula (l×w^2)/2.
Two days following the final treatment, 5 nmol probe in saline was injected intravenously and fluorescence imaging began immediately on a Maestro hyperspectral fluorescent imaging system (PerkinElmer, Mass., USA) using a 635±25 nm excitation filter and a 675 nm long-pass emission filter, with images acquired from 670 to 900 nm. Tissue autofluorescence and Cy5.5 fluorescence were deconvolved, and tumor fluorescence intensity was quantified by region of interest measurement using Nuance v.3.0.1.2 software (Perkin Elmer, Mass., USA).

Caspase-3 [3] = target: T2, Caspase-3 (Mus musculus, UniProt P70677); settings: cited from earlier work
T2 sequence (P70677 29-175 limits assumed): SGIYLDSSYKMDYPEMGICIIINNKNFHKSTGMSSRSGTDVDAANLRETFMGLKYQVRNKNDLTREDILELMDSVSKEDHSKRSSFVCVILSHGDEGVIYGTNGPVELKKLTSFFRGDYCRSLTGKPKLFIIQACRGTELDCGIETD
T2 sequence (P70677 176-277 limits assumed): T1 sequence (P42574 176-277 limits assumed) with V3T, D5E, D6E, H10Q, A46S, Q50L, D53H, F77L, A79S

PS binding = settings: cited from earlier work

Q: Which “fluorescence of apoptotic cells compared to C-SNAF” value (apoptotic HeLa cells) does the source give for CC[N+]1=C(C=CC=CC=C2N(CCCCCC(=O)NCCCCC(NC(=O)C(CSC)NC(=O)C(CC(=O)O)NC(=O)C(NC(=O)C(CCC(=O)O)NC(=O)C(CC(=O)O)NC(C)=O)C(C)C)C(=O)Nc3ccc4nc(C5=NC(C(=O)NCCCOc6ccc7ncccc7c6)CS5)sc4c3)c3ccc4c(S(=O)(=O)O)cc(S(=O)(=O)O)cc4c3C2(C)C)C(C)(C)c2c1ccc1c(S(=O)(=O)O)cc(S(=O)(=O)[O-])cc21 [D-ctrl] here?
A: relatively weaker fluorescence

Q: And the “products observed after incubation with caspase-3” value (caspase-3 [1])?
A: no new products were observed

Q: And the “fluorescent intensity of apoptotic cells incubated with control probes” value [2]?
A: much lower fluorescent intensity

Q: What about the “correlation (r) of maximum tumor fluorescence with maximum tumor size change” value (subcutaneous HeLa tumors; 3×DOX-treated mice, 1 h after probe) of the same molecule?
A: no significant correlation

Q: And the “average signal enhancement between DOX- and saline-treated tumors” value (subcutaneous HeLa tumors; 4 h after probe administration)?
A: −12%

Q: What about the “tumor fluorescence lower than that of C-SNAF” value (subcutaneous HeLa tumors; DOX-treated mice, 1 h) of the same molecule?
A: 10%

Q: Which results are given for O=C1C(=O)N(Cc2cn(CC[18F])nn2)c2ccc(S(=O)(=O)N3CCCC3COc3ccc(F)cc3F)cc21 (stereo not drawn) [[^18F]ICMT-11]?
A: Target/Background (Tumor/blood) (Caspase-3 [3]; Tumor/blood): 1.2^c; time course of uptake at the apoptotic tumors (Caspase-3 [3]; mouse, in vivo): decreased over the time after injection; Treated/Untreated (Caspase-3 [3]; treated and untreated group in different animal): 1.5^d

B1: [^18F]Annexin V: known apoptosis PET tracer, PS binding (protein, UniProt P08758 2-320, looked up)
Annexin A5: AQVLRGTVTDFPGFDERADAETLRKAMKGLGTDEESILTLLTSRSNAQRQEISAAFKTLFGRDLLDDLKSELTGKFEKLIVALMKPSRLYDAYELKHALKGAGTNEKVLTEIIASRTPEELRAIKQVYEEEYGSSLEDDVVGDTSGYYQRMLVVLLQANRDPDAGIDEAQVEQDAQALFQAGELKWGTDEEKFITIFGTRSVSHLRKVFDKYMTISGFQIEETIDRETSGNLEQLLLAVVKSIRSIPAYLAETLYYAMKGAGTDDHTLIRVMVSRSEIDLFNIRKEFRKNFATSLYSMIKGDTSGDYKKALLLLCGEDD
modifications: 18F radiolabel
Q: With B1 as the molecule, how does the “% ID/g at target site” value (PS binding; PET imaging) read?
A: 1.56 ± 0.2 % ID/g

Q: And the Target/Background (PS binding; maximum value at the apoptotic tissue)?
A: 3.4

Q: And the Treated/Untreated (PS binding; pre and post treatment in same animal)?
A: 1.6^b
